In patent publication US5268389A, “Thiocarboxylate ester compounds compositions containing the same” (priority 1990, dated 1993):
Several values for one entry are separate records, joined by “and”; a condition that tells them apart may be missing. Equal entries are not always repeated.

Key:
[1] = test system: HIV; experiment: microbe, parasite or virus in culture; format: cell-based; details: CEM cells; for EC50: free HIV, read-out: Activity of Anti-HIV Compounds (EC50), CEMV
Experimental: (§1) The compounds of Examples were tested for anti-AIDS activity by subjecting them to standard National Cancer Institute ("NCI") in vitro screening procedures. In carrying out each test, two blanks were run. In the first blank, HIV and a culture of a standard human cell line were incubated together to measure the infectivity of the virus. The viability of the cells was measured after holding for six or seven days. In an "effective" test, most cells were infected before the holding period was complete.
In the second blank, the cell line culture and the compound being tested (but not virus) were incubated together to measure the toxicity of the drug to the cellline. The viability of the cells was measured as a function of concentration of the compound, after holding for seven days. Typically, the cells survive at low compound concentrations, but at some higher concentration, toxicity of the compound is manifested and the cells die. The concentration of the test compound that results in 50% inhibition of cell growth is defined as the IC50.
(§2) Finally, the protective effects of the test compounds were measured. Each cell culture and test compound were incubated with the virus and the viability of the cells was measured as a function of compound concentration after holding for six or seven days. If the compound is active in protecting the cells against the virus, there is typically low cell viability until an effective concentration of the test compound is reached. At this point, cell viability increases steadily toward 100% unless the toxic effect of the compound (as measured in the second blank) takes effect. The concentration of the test compound that results in 50% "control," i.e., a 50% reduction of the viral cytopathic effect, is defined as the EC 50. The therapeutic index TI50 is calculated as IC50/EC50.
(§3) Values of test compound concentrations required for between 20 and 50% reduction of the viral cytopathic effect can also be determined. Such compounds are classified as moderately active.
(§4) The compounds were tested to determine their reduction of HIV cytopathic effect on the human cell lines CEM and MT2. Tests were done by innoculating these cell lines either with free HIV (V) or with a virus Previously cultured with host cells (C). Thus, in Table III the designation CEMV means CEM line cells innoculated with free virus and MT2C means MT2 cells innoculated with cultured viral infected MT2 cells. In some cases the compound was also tested on a cell line together with a sub-effective amount of the known HIV viricide AZT. This is done to test possible synergistic effects. Such a test on the CEM line is denoted CEMZ.
1) T4 lymphocytes (CEM cell line) are exposed to HIV at a virus to cell ratio of approximately 0.05 and plated along with non-infected control cells in 96-well microtiter plates.
2) Each candidate agent is dissolved in dimethyl sulfoxide (unless otherwise indicated), then diluted 1:200 in cell culture medium. Further dilutions (five-fold) are prepared before adding to an equal volume of medium containing either infected or noninfected cells.
3) Cultures are incubated at 37° C. in a 5% carbon dioxide atmosphere for seven days (if six days the CEMV test is identified as CEM-6).
(§5) 4) The tetrazolium salt, XTT, is added to all wells, and cultures are incubated to allow formazan color development by viable cells.
(§6) 5) Individual wells are analyzed spectrophotometrically to quantity formazan production, and in addition are viewed microscopically for detection of viable cells and confirmation of protective activity.
(§7) 6) Drug-treated virus-infected cells are compared with drug-treated non-infected cells and with other appropriate controls (untreated infected and untreated non-infected cells, drug-containing wells without cells, etc.) on the same plate.
7) A determination of activity is made. […]

[2] = test system: HIV; experiment: Reduction of HIV cytopathic effect, CEM-IW protocol; format: cell-based; details: asterisk: CEMIW protocol; for EC50: CEM cells, drug added before virus, read-out: Activity of Anti-HIV Compounds (EC50), CEM-IW; for Activity class of Anti-HIV Compounds, CEM-IW: inhibition of viral cytopathic effect
Experimental: as §1, §2, §3, §4
The aforementioned identifiers are used when a batch was prepared and samples inserted into the wells. In procedures calling for the addition of the drug (or no drug) and the CEM uninfected cells to each well, followed by the subsequent addition of the HIV virus, the protocol is designated as CEM-IW.
as §5, §6, §7
Asterisks indicate the CEMIW protocol.

[3] = Human immunodeficiency virus 1, CCRF-CEM

Row | SMILES | EC50 [2, 3] [µM] | EC50 [2] | further results
1 | CCOC(=O)c1cc(NC(=O)C2=C(C)OCCS2)ccc1Cl [Compound 4, Ethyl 2-chloro-5-[[(5,6-dihydro-2-methyl-1,4-oxathiin-3-yl)carbonyl]amino]benzoate] |  |  | EC50 [1]: 0.3 µM and 0.2 µM; EC50 [1, 3]: 0.4 µM
2 | CCCOC(=O)c1cc(NC(=O)C2=C(C)OCCS2)ccc1Cl [Compound 5, Propyl 2-chloro-5-[[(5,6-dihydro-2-methyl-1,4-oxathiin-3-yl)carbonyl]amino]benzoate] |  |  | EC50 [1]: 0.06 µM; EC50 [1, 3]: 0.07 µM
3 | CCCCOC(=O)c1cc(NC(=O)C2=C(C)OCCS2)ccc1Cl [Compound 6, Butyl 2-chloro-5-[[(5,6-dihydro-2-methyl-1,4-oxathiin-3-yl)carbonyl]amino]benzoate] |  |  | EC50 [1, 3]: 0.1 µM
4 | CCC1=C(C(=O)Nc2ccc(Cl)c(C(=O)OC(C)C)c2)SCCO1 [Compound 7, 1-Methylethyl 2-chloro-5-[[(2-ethyl-5,6-dihydro-1,4-oxathiin-3-yl)carbonyl]amino]benzoate] |  |  | EC50 [1]: 0.7 µM; EC50 [1, 3]: 0.84 µM
5 | CC1=C(C(=O)Nc2cccc(C#N)c2)SCCO1 [Compound 9, N-(3-Cyanophenyl)-5,6-dihydro-2-methyl-1,4-oxathiin-3-carboxamide] |  |  | Activity class of Anti-HIV Compounds, CEMV ([1]; inhibition of viral cytopathic effect, free virus): MA (moderate activity (MA), that is, inhibition between approximately 20 and 50%)
6 | CC1=C(C(=O)Nc2cccc(C(=O)OC(C)C)c2)SCCO1 [Compound 10, 1-Methylethyl 3-[[(5,6-dihydro-2-methyl-1,4-oxathiin-3-yl)carbonyl]amino]benzoate] |  |  | EC50 [1]: 2.9 µM; EC50 [1, 3]: 3 µM
7 | CC1=C(C(=O)Nc2cc(C(=O)OC(C)C)ccc2F)SCCO1 [Compound 13, 1-Methylethyl 3-[[(5,6-dihydro-2-methyl-1,4-oxathiin-3-yl)carbonyl]amino]-4-fluorobenzoate] |  |  | EC50 [1]: 13.2 µM; EC50 [1, 3]: 15.2 µM
8 | CCOC(=O)c1ccc(C)c(NC(=O)C2=C(C)OCCS2)c1 [Compound 14, Ethyl 3-[[(5,6-dihydro-2-methyl-1,4-oxathiin-3-yl)carbonyl]amino]-4-methylbenzoate] |  |  | EC50 [1]: 5.2 µM; EC50 [1, 3]: 7.6 µM
9 | CC(C)OC(=O)c1cc(NC(=S)OCC2CCCO2)ccc1Cl (centres unmarked) [Compound 43] |  |  | Activity class of Anti-HIV Compounds, CEM-IW [2]: MA (moderate activity (MA), that is, inhibition between approximately 20 and 50%)
10 | CCCSC(=Nc1ccc(Cl)c(C(=O)OC(C)C)c1)OC(C)C [Compound 52] | 2.44 | 2.47 µM and 1.94 µM | 
11 | CC(C)OC(=O)c1cc(NC(=O)c2ccccc2I)ccc1Cl [Compound 82, 1-Methylethyl 2-chloro-5-[(2-iodobenzoyl)amino]benzoate] | 2.67 | 2.56 µM and 2.15 µM and 2.88 µM | 
12 | COc1ccccc1C(=O)Nc1ccc(Cl)c(C(=O)OCC2CCCO2)c1 (centres unmarked) [Compound 83, Tetrahydro-2-furanylmethyl 2-chloro-5-[(2-methoxybenzoyl)-amino]benzoate] |  |  | Activity class of Anti-HIV Compounds, CEM-IW [2]: MA (moderate activity (MA), that is, inhibition between approximately 20 and 50%)
13 | COc1ccccc1NC(=O)Nc1ccc(Cl)c(C(=O)OC(C)C)c1 [Compound 99] |  |  | Activity class of Anti-HIV Compounds, CEM-IW [2]: MA (moderate activity (MA), that is, inhibition between approximately 20 and 50%)
14 | CC(C)OC(=O)c1cc(NC(=O)OC2CCCCC2)ccc1Cl [Compound 102] |  |  | Activity class of Anti-HIV Compounds, CEM-IW [2]: MA (moderate activity (MA), that is, inhibition between approximately 20 and 50%)
15 | CC1=C(C(=O)Nc2ccc(O)c(C(=O)OC(C)C)c2)SCCO1 [Compound 112, 1-Methylethyl 5-[[(5,6-dihydro-2-methyl-1,4-oxathiin-3-yl)-carbonyl]amino]-2-hydroxybenzoate] |  |  | Activity class of Anti-HIV Compounds, CEM-IW [2]: MA (moderate activity (MA), that is, inhibition between approximately 20 and 50%)
16 | CC(=O)Nc1ccccc1C(=O)Nc1ccc(Cl)c(C(=O)OC(C)C)c1 [Compound 114, 1-Methylethyl 5-[(2-acetamidobenzoyl)amino]-2-chlorobenzoate] |  |  | Activity class of Anti-HIV Compounds, CEM-IW [2]: MA (moderate activity (MA), that is, inhibition between approximately 20 and 50%)
17 | CC(C)OC(=O)c1cc(NC(=S)OCc2ccccc2)ccc1Cl [Compound 117] |  |  | Activity class of Anti-HIV Compounds, CEM-IW [2]: MA (moderate activity (MA), that is, inhibition between approximately 20 and 50%)
18 | COC(=O)c1ccccc1S(=O)(=O)NC(=O)Nc1ccc(Cl)c(C(=O)OC(C)C)c1 [Compound 130] |  |  | Activity class of Anti-HIV Compounds, CEM-IW [2]: MA (moderate activity (MA), that is, inhibition between approximately 20 and 50%)
19 | CC(C)OC(=O)c1cc(NC(=NS(=O)(=O)c2ccccc2)c2ccccc2F)ccc1Cl [Compound 131] |  |  | Activity class of Anti-HIV Compounds, CEM-IW [2]: MA (moderate activity (MA), that is, inhibition between approximately 20 and 50%)
20 | CC1=C(C(=O)Nc2ccccc2C(=O)Nc2ccc(Cl)c(C(=O)OC(C)C)c2)SCCO1 [Compound 147] | 0.59 | 0.608 µM | 
21 | CCOC(=O)c1cc(NC(=S)OC(C)C)ccc1Cl [Compound 148] |  |  | Activity class of Anti-HIV Compounds, CEM-IW [2]: MA (moderate activity (MA), that is, inhibition between approximately 20 and 50%)
22 | CC(=O)Oc1ccc(NC(=O)C2=C(C)OCCS2)cc1C(=O)OC(C)C [Compound 157] |  |  | Activity class of Anti-HIV Compounds, CEM-IW [2]: MA (moderate activity (MA), that is, inhibition between approximately 20 and 50%)

Now from value to compound, other results behind:

Row | EC50 [2, 3] [µM] | EC50 [2] | SMILES | further results
23 | 0.66 | 0.68 µM and 0.73 µM | CCOC(=S)Nc1ccc(Cl)c(C(=O)OC(C)C)c1 [Compound 33] | 
24 | 0.24 | 0.18 µM and 0.2 µM | CCCOC(=S)Nc1ccc(Cl)c(C(=O)OC(C)C)c1 [Compound 35] | 
25 | 1.04 | 1.38 µM and 1.32 µM and 0.89 µM | CCCCCOC(=S)Nc1ccc(Cl)c(C(=O)OC(C)C)c1 [Compound 36] | 
26 | 0.32 | 0.2 µM | C=CCOC(=S)Nc1ccc(Cl)c(C(=O)OC(C)C)c1 [Compound 37] | 
27 | 1.09 | 1.47 µM and 1.75 µM and 1.46 µM | CC(C)OC(=O)c1cc(NC(=S)OC2C=CCCC2)ccc1Cl (centres unmarked) [Compound 39] | 
28 | 0.87 | 0.75 µM and 1.06 µM and 0.9 µM | Cc1oc(C)c(C(=S)Nc2ccc(Cl)c(C(=O)OC(C)C)c2)c1C [Compound 58, 1-Methylethyl 2-chloro-5-[(2,4,5-trimethyl 3-furanyl)thioxomethyl]amino1benzoate] | 
29 | 0.043 | 0.037 µM | Cc1occc1C(=S)Nc1ccc(Cl)c(C(=O)OC(C)C)c1 [Compound 59, 1-methylethyl 2-chloro-5-[(2-methyl-3-furanyl)thioxomethyl]amino benzoate] | 
30 | 0.39 | 0.62 µM and 0.42 µM and 0.45 µM | CC(C)OC(=O)c1cc(NC(=S)c2ccccc2)ccc1Cl [Compound 61, Benzoic acid, 2-chloro-5-(phenylthioxomethyl) amino-, 1-methylethyl ester] | 
31 | 0.476 | 0.404 µM and 0.588 µM and 0.509 µM | COc1ccccc1C(=S)Nc1ccc(Cl)c(C(=O)OC(C)C)c1 [Compound 65] | 
32 | 0.26 | 0.373 µM and 0.243 µM and 0.422 µM | CCOC(=O)c1cc(NC(=S)OC(C)C)ccc1SC [Compound 145] | 
33 | 0.21 | 0.23 µM and 0.296 µM and 0.329 µM | CCOC(=O)c1cc(NC(=S)OC(C)C)ccc1C [Compound 150] | 
34 | 0.0954 | 0.0842 µM and 0.0777 µM and 0.0537 µM | CCC(CC)OC(=O)c1cc(NC(=S)OC(C)C)ccc1Cl [Compound 151] | 
35 | 0.0717 | 0.0417 µM and 0.0368 µM and 0.0571 µM | CCC(C)OC(=O)c1cc(NC(=S)OC(C)C)ccc1Cl (centres unmarked) [Compound 152] | 
36 | 0.0719 | 0.0426 µM and 0.053 µM | CCCCOC(=O)c1cc(NC(=S)OC(C)C)ccc1Cl [Compound 153] | 
37 | 0.0443 |  | CCCOC(=O)c1cc(NC(=S)OC(C)C)ccc1Cl [Compound 154] | 
38 | 6.1 | 6.77 µM and 4.49 µM and 3.62 µM | CCC(=O)Oc1ccc(NC(=O)C2=C(C)OCCS2)cc1C(=O)OC(C)C [Compound 158] | 
